# Measurements taken from patent US10689380B1, “Crystalline forms of valbenazine ditosylate” (Farmhispania S.A., priority 2019, dated 2020).
# What was measured:
# [1] = Dynamic Vapour Sorption (DVS) analysis; type: physicochemical; conditions: 25° C., first cycle
# Method: (§1) As used herein, DVS means Dynamic Vapour Sorption Analysis. Unless stated otherwise, DVSs were performed according to the following equipment and conditions: DVS-1000 instrument by Surface Measurement Systems was used. Samples were prepared by transferring them into an aluminum crucible and loading this into the DVS. A method utilizing two cycles (0% to 90% RH) and (90% to 0% RH) was run. The equilibrium condition for each step was set to a mass constancy of ±0.001% over 60 min and a maximum time limit of 1440 min for each step. This method was undertaken at 25° C.
# [2] = Stability against temperature stress as indicated by DSC and DVS data; type: physicochemical
# Method: as §1, with “C. As used herein, DSC means Differential Scanning calorimetry Analysis. Unless stated otherwise, DSCs were performed according to the following equipment and conditions: DSC 822e Mettler Toledo. Crucible: Aluminum crucible with a capacity of 40 μL and with hole the lid. Gas: Dry nitrogen 50 mL/min. Method standard: Heating from 30° C. to 300° C. at a rate of 10° C./min.” for “C.”
Substance,"polymorphic change associated with the sorption/desorption phenomenon in DVS, based on XRPD analysis ([1]; 70-80% relative humidity)",water sorption by the sample (DVS) ([1]; at 70% relative humidity),water desorption by the sample (DVS) ([1]; at 80% relative humidity) [%],stability against temperature stress for formulation into an oral solid dosage form [2],water sorption by the sample (DVS) ([1]; at 90% relative humidity)
valbenazine ditosylate [Form D],transformation to polymorphic form II,approximately 6.0%,4.0,,
valbenazine ditosylate [Form E],,,,stable against temperature stress,approximately 1.4%
